Measured values as given in US9873670B2, “Arylquinoline and analog compounds and use thereof to treat cancer” (UNIVERSITY OF KENTUCKY RESEARCH FOUNDATION, priority 2013, dated 2018).
“Also recorded” adds a separate entry of the source.

Experiments:
[1] = test system: mouse embryonic fibroblast (MEF) cells; assay: Par-4 secretion from normal mouse fibroblasts (Western blot of conditioned medium); assay type: cell-based
Method: In another aspect, the subject technology provides assays for screening test compounds that interfere with vimentin binding to PAR-4 or which cause release of vimentin-bound PAR-4. In a typical assay, cells, such as HEL cells, are seeded onto an appropriate support, such as 60-mm plates containing supplemented growth medium (e.g., supplemented with 0.1% serum) at a desired confluency, such as 40-70% confluency, and treated with the test compound (e.g., 500 nM) or control vehicle. The cells are allowed to grow for a period of time, such as 24 hours, after which the conditioned medium (CM) is concentrated (e.g., concentrated 30× to 100 μl using Millipore tubes (Amicon Ultra centrifugal filters, Ultracel-10K) by 15 min centrifugation at 4500 rpm). The concentrated CM is then subjected to co-immunoprecipitation using detectably labeled PAR-4 and vimentin antibodies in the presence of various concentrations of purified PAR-4 and the precipitated proteins are resolved by SDS-PAGE and analyzed by Western blot analysis. The amount of immunoprecipitated PAR-4-vimentin complex is compared to that of control samples. For example, chemiluminescent signals may be quantified in the BIO-RAD Molecular Imager ChemiDoc XRS+Imaging system using Quantity One software. Induction of Par-4 secretion by the test drug (e.g., 500 nM), as judged by this Western blot analysis procedure, will indicate dissociation of Par-4 from vimentin. […] For such experiments, cells may be treated with the test drug (e.g., 500 nM) or vehicle for an appropriate period of time, such as 24 hours, and then cell lysates are prepared and subjected to immunoprecipitation using an appropriate amount of a Par-4 antibody, vimentin antibody or control IgG antibody by using any standard immunoprecipitation procedure. Following […], the complexes are resolved, preferably by Western blot analysis as described above. If the drug inhibits the binding of Par-4 to vimentin, it will be reflected in the lack of co-immunoprecipitation of Par-4 with the vimentin antibody, and co-immunoprecipitation of vimentin with the Par-4 antibody.
Co-Immunoprecipitation and Western blot analysis: Protein extracted from cell lysates was filtered, pre-cleared with 25 μL (bed volume) of protein G-Sepharose beads and immunoprecipitated with 1 μg of respective antibodies. The eluted proteins were resolved by SDS-PAGE, and subjected to Western blot analysis as described.
To identify Par-4 secretagogues, we synthesized and screened 3-arylquinolines as well as related quinolones and quinothiolones for the secretion of Par-4 protein from normal fibroblasts under conditions that are not toxic to the cells.
We screened representative members of each of these heterocyclic families on a compound-by-compound basis for the secretion of Par-4 protein from normal mouse fibroblasts under conditions that were not toxic to the cells. Initial expectations were that these heterocycles would serve as Nutlin-3a surrogates and inhibit MDM2, but studies reported herein established a completely different mechanism of action, reflecting that the structural dissimilarities between these heterocycles and Nutlin-3a outweighed the similarities that led to their initial selection for screening.

[2] = test system: normal/immortalized human cells; assay: Par-4 secretion from normal/immortalized human cells; assay type: cell-based
Method: In another aspect, the subject technology provides assays for screening test compounds that interfere with vimentin binding to PAR-4 or which cause release of vimentin-bound PAR-4. In a typical assay, cells, such as HEL cells, are seeded onto an appropriate support, such as 60-mm plates containing supplemented growth medium (e.g., supplemented with 0.1% serum) at a desired confluency, such as 40-70% confluency, and treated with the test compound (e.g., 500 nM) or control vehicle. The cells are allowed to grow for a period of time, such as 24 hours, after which the conditioned medium (CM) is concentrated (e.g., concentrated 30× to 100 μl using Millipore tubes (Amicon Ultra centrifugal filters, Ultracel-10K) by 15 min centrifugation at 4500 rpm). The concentrated CM is then subjected to co-immunoprecipitation using detectably labeled PAR-4 and vimentin antibodies in the presence of various concentrations of purified PAR-4 and the precipitated proteins are resolved by SDS-PAGE and analyzed by Western blot analysis. The amount of immunoprecipitated PAR-4-vimentin complex is compared to that of control samples. For example, chemiluminescent signals may be quantified in the BIO-RAD Molecular Imager ChemiDoc XRS+Imaging system using Quantity One software. […]

PC-3 cells = assay: Apoptosis, PC-3 cells; assay type: cell-based, human; details: 500 nM
Method: (§1) See Hebbar, N., Wang, C. & Rangnekar, V. M. J Cell Phys 227, 3715-3721 (2012) and Shrestha-Bhattarai, T., Hebbar, N. & Rangnekar, V. M. Cancer Cell 24, 3-5 (2013). A total of three independent experiments were performed; and approximately 500 cells were scored in each experiment for apoptosis under a fluorescent microscope. Cell surface GRP78 expression on the cancer cell surface was quantified by FACS analysis in the Flow Cytometry Shared Resource Facility, Markey Cancer Center as previously described. See Hebbar, N., Wang, C. & Rangnekar, V. M. J Cell Phys 227, 3715-3721 (2012).

[3] = test system: cancer cells co-cultured with Par-4-/- MEFs; assay: Apoptosis in co-cultures of Par-4-/- MEFs and cancer cells; assay type: cell-based; details: 500 nM
Method: Top: Cancer cells were co-cultured with MEFs and treated with Arylquin 1 (500 nM) or vehicle and tested for apoptosis. Bottom: Serum from mice injected with Arylquin 1 (Aq) or corn oil vehicle (V), was examined by Western blot analysis (not shown). Aliquots of serum from these mice were either directly added to the growth medium of cells in culture, or incubated with the indicated antibody, and then added to the growth medium of PC-3 MM2 cells to test for apoptosis.
as §1

normal HEL cells = assay: Apoptosis of normal cells in co-culture experiments; assay type: cell-based, human; details: 500 nM
Method: as §1

cell surface GRP78 = assay: Paracrine apoptosis by CM from treated MEFs with GRP78 neutralizing antibody; assay type: cell-based; details: CM from Par-4+/+ MEFs treated with 500 nM
Method: FIGS. 4A and 4B are bar graphs illustrating percent cell surface GRP-78 expression and apoposis activity for an arylquinoline of the present disclosure. FIG. 4A is a bar graph showing cell surface GRP78 levels in cancer cells treated with CM from MEFs exposed to Arylquin 1. Par-4+/+ MEFs or Par-4−/− MEFs were treated with vehicle or Arylquin 1 (500 nM) for 24 h. The CM from these MEFs was incubated with the indicated cancer cells for 24 h. The cancer cells were then subjected to FACS analysis for cell surface GRP78 expression. Data shown represent mean values of three experiments±s.d. Asterisks (**) or (*) indicate statistical significance (P<0.0001) or (P<0.001), respectively, based on two-way ANOVA with data normality and equality of variance assumptions. […] After 24 h, the cancer cells were scored for apoptosis by ICC for active caspase-3. […]
See Hebbar, N., Wang, C. & Rangnekar, V. M. J Cell Phys 227, 3715-3721 (2012) and Shrestha-Bhattarai, T., Hebbar, N. & Rangnekar, V. M. Cancer Cell 24, 3-5 (2013). A total of three independent experiments were performed; and approximately 500 cells were scored in each experiment for apoptosis under a fluorescent microscope. Cell surface GRP78 expression on the cancer cell surface was quantified by FACS analysis in the Flow Cytometry Shared Resource Facility, Markey Cancer Center as previously described. […]

In the case of `CN(C)c1ccc2cc(-c3ccccc3F)c(N)nc2c1` [Arylquin 1, 3-(2-fluorophenyl)-N^7,N^7-dimethylquinoline-2,7-diamine], the Par-4 secretion ([1]; MEF cells) is reported as “dose-dependent secretion”, the “level of Par-4 secretion, structure-activity comparison among analogs” value ([1]; normal mouse fibroblasts, conditions not toxic to the cells) is reported as “most active; also recorded: highest levels of Par-4 secretion” and the “secretion of Par-4 from normal fibroblasts and epithelial cells” value ([2]; nanomolar concentrations) is reported as “dose-dependent secretion of Par-4 at nanomolar concentrations”. The Par-4 secretion ([2]; normal/immortalized human cells) was “induced robust secretion of Par-4”, the apoptosis (PC-3 cells) was “induced apoptosis” and the “apoptosis of cancer cells in co-culture” value [3] was “did not induce apoptosis”. For the same molecule, the “apoptosis of normal cells in co-culture” value (normal HEL cells) was “not normal HEL cells” and the “mediation of paracrine apoptosis” value (cell surface GRP78) was “mediated via cell surface GRP78”.
